Test results taken from US11485731B2, “Compounds and methods useful in the treatment of a PRMT5-mediated disorder” (ARGONAUT THERAPEUTICS LIMITED, priority 2017, dated 2022).

Biological target: human PRMT5/MEP50 (Homo sapiens (Human), UniProt O14744)
Assay: PRMT5 chemiluminescent assay
Format: biochemical
Conditions: human PRMT5/MEP50 expressed in HEK293 cells; biotinylated histone peptides; Histone H4 monomethyl R3 antibody; chemiluminescent readout
Procedure, shortened: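 HEK293-expressed PRMT5/MEP50, diluted to 5 ng/µL in assay buffer, reacted 60 min with rotation on plate-bound biotinylated histone peptides. Product was detected with anti-histone H4 R3 monomethyl antibody (60 min), then HRP secondary (30 min) and chemiluminescent substrate. IC50 values came from the chemiluminescence signal.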

Sequence of human PRMT5/MEP50 (O14744 whole entry): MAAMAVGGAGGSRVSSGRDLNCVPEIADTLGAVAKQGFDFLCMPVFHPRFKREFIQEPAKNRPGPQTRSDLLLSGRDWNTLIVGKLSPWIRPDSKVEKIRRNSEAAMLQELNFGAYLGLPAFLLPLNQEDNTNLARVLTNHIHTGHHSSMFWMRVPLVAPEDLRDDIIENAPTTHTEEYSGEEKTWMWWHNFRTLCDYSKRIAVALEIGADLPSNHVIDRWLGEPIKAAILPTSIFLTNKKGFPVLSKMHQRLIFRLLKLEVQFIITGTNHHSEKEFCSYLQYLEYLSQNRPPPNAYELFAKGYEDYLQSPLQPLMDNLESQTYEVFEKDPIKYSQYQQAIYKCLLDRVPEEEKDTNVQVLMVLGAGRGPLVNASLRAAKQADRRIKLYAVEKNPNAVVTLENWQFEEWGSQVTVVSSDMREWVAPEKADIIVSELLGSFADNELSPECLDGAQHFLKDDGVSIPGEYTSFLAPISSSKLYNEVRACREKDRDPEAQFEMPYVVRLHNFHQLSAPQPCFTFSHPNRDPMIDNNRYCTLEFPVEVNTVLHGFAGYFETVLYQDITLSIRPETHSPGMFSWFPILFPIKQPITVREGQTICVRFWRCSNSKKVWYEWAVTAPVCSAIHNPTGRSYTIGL
Sequence of human PRMT5/MEP50 (Q9BQA1 whole entry partner): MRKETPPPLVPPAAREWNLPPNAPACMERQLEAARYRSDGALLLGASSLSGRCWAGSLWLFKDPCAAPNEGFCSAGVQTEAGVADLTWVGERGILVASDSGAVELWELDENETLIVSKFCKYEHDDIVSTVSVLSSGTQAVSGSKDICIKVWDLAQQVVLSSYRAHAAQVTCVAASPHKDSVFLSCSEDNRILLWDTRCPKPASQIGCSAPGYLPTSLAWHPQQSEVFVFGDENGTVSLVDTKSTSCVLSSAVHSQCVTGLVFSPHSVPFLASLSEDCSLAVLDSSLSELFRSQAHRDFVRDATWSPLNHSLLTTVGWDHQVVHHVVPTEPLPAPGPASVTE

Row | SMILES | IC50 [nM]
1 | O=C(NCC(O)CN1CCc2ccccc2C1)N1CCc2ccccc21 (stereo not shown) [Example 2B, N-[2-hydroxy-3-(1,2,3,4-tetrahydroisoquinolin-2-yl)propyl]-2,3-dihydro-1H-indole-1-carboxamide] | 8500
2 | O=C(OCC(O)CN1CCc2ccccc2C1)N1CCCCC1 (stereo not shown) [Example 3B, 2-hydroxy-3-(1,2,3,4-tetrahydroisoquinolin-2-yl)propyl piperidine-1-carboxylate] | 613
3 | O=C(OCC(O)CN1CCc2ccccc2C1)N1CCCC1 (stereo not shown) [Example 3C, 2-hydroxy-3-(1,2,3,4-tetrahydroisoquinolin-2-yl)propyl pyrrolidine-1-carboxylate] | 9560
4 | O=C(OCC(O)CN1CCc2ccccc2C1)N1CCSCC1 (stereo not shown) [Example 4A, 3-(3,4-dihydroisoquinolin-2(1H)-yl)-2-hydroxypropyl thiomorpholine-4-carboxylate] | 477
5 | O=C(OCC(O)CN1CCc2ccsc2C1)N1CCc2ccccc2C1 (stereo not shown) [Example 4AB, 3-(4,7-dihydrothieno[2,3-c]pyridin-6(5H)-yl)-2-hydroxypropyl 3,4-dihydroisoquinoline-2(1H)-carboxylate] | 1010
6 | O=C(OCC(O)CN1CCc2sccc2C1)N1CCCC(c2ccccc2)C1 (stereo not shown) [Example 4AC, 3-(6,7-dihydrothieno[3,2-c]pyridin-5(4H)-yl)-2-hydroxypropyl 3-phenylpiperidine-1-carboxylate] | 374
7 | O=C(OCC(O)CN1CCc2ccsc2C1)N1CCCC(c2ccccc2)C1 (stereo not shown) [Example 4AD, 3-(4,7-dihydrothieno[2,3-c]pyridin-6(5H)-yl)-2-hydroxypropyl 3-phenylpiperidine-1-carboxylate] | 223
8 | O=C(OCC(O)CN1CCc2ccccc2C1)N1CCCc2ccccc21 (stereo not shown) [Example 4AG, 3-(3,4-dihydroisoquinolin-2(1H)-yl)-2-hydroxypropyl 3,4-dihydroquinoline-1(2H)-carboxylate] | 360

These reach a lower IC50. Values come first.

Row | IC50 [nM] | SMILES
9 | 192 | O=C(OCC(O)CN1CCc2ccccc2C1)N1CCc2ccccc2C1 (stereo not shown) [Example 3A, 3-(3,4-dihydroisoquinolin-2(1H)-yl)-2-hydroxypropyl 3,4-dihydroisoquinoline-2(1H)-carboxylate]
10 | 87 | O=C(NCC(O)CN1CCc2ccccc2C1)N1CCCc2ccccc21 (stereo not shown) [Example 2A, N-(3-(3,4-dihydroisoquinolin-2(1H)-yl)-2-hydroxypropyl)-3,4-dihydroquinoline-1(2H)-carboxamide]
11 | 75 | O=C(OCC(O)CN1CCc2ccccc2C1)N1CCC(C(=O)N2CCOCC2)CC1 (stereo not shown) [Example 4B, 3-(3,4-dihydroisoquinolin-2(1H)-yl)-2-hydroxypropyl 4-(morpholine-4-carbonyl)piperidine-1-carboxylate]
12 | 46 | O=C(OCC(O)CN1CCc2sccc2C1)N1CCc2ccccc2C1 (stereo not shown) [Example 4AA, 3-(6,7-dihydrothieno[3,2-c]pyridin-5(4H)-yl)-2-hydroxypropyl 3,4-dihydroisoquinoline-2(1H)-carboxylate]
13 | 41 | O=C(OCC(O)CN1CCc2sccc2C1)N1CCC(c2ccccc2)C1 (stereo not shown) [Example 4AE, 3-(6,7-dihydrothieno[3,2-c]pyridin-5(4H)-yl)-2-hydroxypropyl 3-phenylpyrrolidine-1-carboxylate]
14 | 25 | O=C(OCC(O)CN1CCc2ccccc2C1)N1CCCC(Nc2ccncc2)C1 (stereo not shown) [Example 4C, 3-(3,4-dihydroisoquinolin-2(1H)-yl)-2-hydroxypropyl 3-(pyridin-4-ylamino)piperidine-1-carboxylate]
15 | 21 | O=C(OCC(O)CN1CCc2ccsc2C1)N1CCC(c2ccccc2)C1 (stereo not shown) [Example 4AF, 3-(4,7-dihydrothieno[2,3-c]pyridin-6(5H)-yl)-2-hydroxypropyl 3-phenylpyrrolidine-1-carboxylate]
16 | 15 | O=C(OCC(O)CN1CCc2ccccc2C1)N1CCC(c2ccccc2)C1 (stereo not shown) [Example 3D, 2-hydroxy-3-(1,2,3,4-tetrahydroisoquinolin-2-yl)propyl 3-phenylpyrrolidine-1-carboxylate]
